Measurements as given in patent publication US20140039056A1, “BROMFENAC ORGANIC SALTS AND PREPARATION METHOD, COMPOSITION AND USE THEREOF” (SHENYANG XINGQI PHARMACEUTICAL CO., LTD., priority 2010, published 2014).
Where a name gives a salt, the structure may show the parent alone.

How the values were obtained:
[1] = Chemical stability in aqueous state (25° C., dark); assay type: physicochemical; conditions: for degradation products and content changes in aqueous solution: dark conditions, in words
[2] = tested on: swelling of foot caused by egg white in rats; assay: Test of effects on swelling of foot caused by egg white in rats; assay type: in vivo; conditions: for effect on voix pedis swelling caused by egg white in rats: within 0.5 hours to 6 hours, versus physiological saline control group, in words
Protocol: Test grouping: 40 rats, bodyweight 200-220 g, randomly divided into 4 groups, 10 rats per group, i.e., physiological saline control group, bromfenac sodium group, bromfenac diethylamine salt group, and bromfenac trometamol salt group.
The rats of each test group were administered with physiological saline, solution of bromfenac sodium, solution of bromfenac diethylamine salt and solution of bromfenac trometamol salt, twice per day via lavage in lavage dose of 50 mL/Kg, for consecutive 7 days, before the last administration, volumes of voix pedis of normal right and left hindfeet of each rat were measured, and the measurement was performed by blood capillary volume method. The linedrawing position at ankle joint of rat was adjusted so that the volumes of voix pedis of right and left hindfeet were about 1 mL, 0.5 hours after the last administration, 0.1 mL of newly prepared 10% egg white liquid was subcutaneously injected to voix pedis of right and left hindfeet of rats respectively, and the volumes of voix pedis of right and left hindfeet of rats were measured again at 0.5, 1, 2, 4, 6 hours after injection of egg white, and swelling rate was calculated (voix pedis swelling rate=voix pedis volume at different time after injection of egg white−voix pedis volume at the same side before injection of egg white/voix pedis volume at the same side before injection of egg white), and the results were shown in Table 5.

[3] = In vitro transdermal absorption test (diffusion cell, ex vivo rat skin); conditions: for Accumulative osmolality: ex vivo rat skin, 32° C., n = 3; for Total osmolality of 24 h: 24 h accumulative osmolality x effective area 1.23 cm^2; for transdermal absorption amount relative to bromfenac sodium: in vitro; for Osmotic rate: slope of accumulative osmolality Q against time; for Osmotic percentage: total osmolality of 24 h / mass added to supplying chamber
Protocol: Preparation of solutions of bromfenac salts: bromfenac sodium, bromfenac diethylamine salt of Example 1, and bromfenac trometamol salt of Example 2 were precisely weighed separately to obtain 0.25 g samples, which were separately placed in 25 ml volumetric flasks, and phosphate buffered solution (pH value was 7.0) was used to reach the metered volume to obtain stock solutions for standby use.
Chromatography conditions: detector: ultraviolet absorption detector (wavelength: 266 nm). Chromatography column: octadecyl silica column (4.0 mm×150 mm, 5 μm). Mobile phase: precisely weighed ammonium acetate 3.85 g, added with water to the metered volume of 1000 mL. 600 mL of this solution was taken, and added with 250 mL of methanol and 150 mL of tetrahydrofuran. Flow rate: 1.5 mL/min.
Plotting standard curves: bromfenac sodium, bromfenac diethylamine salt and bromfenac trometamol salt in suitable amounts were precisely weighed separately, dissolved in mobile phase, diluted separately to form test solutions with concentrations of 10, 30, 60, 120, 300, 700 μg/ml, which were separately weighed precisely to take 20 μl and injected into chromatography and separately assayed.
Transdermal absorption test: ex vivo skins of back and abdomen of 200-260 g rats were taken and used as osmotic membranes, which were fixed with suture on diffusion cells (diffusion cells having a diameter of 1.25 cm, and an effective area of 1.23 cm^2). Stock solutions of bromfenac sodium, bromfenac diethylamine salt and bromfenac trometamol salt in an amount of 2 ml were separately added to supplying chamber, 100 ml of physiological saline was used as receiving solution in receiving cells, kept at a constant temperature of 32° C., stirred (250 r/min). 5 ml samples of receiving solutions were taken precisely with time intervals of 0, 2, 4, 6, 8, 10, 12, 24 hours, filtered, measured according to the above method to determine first-order light spectrum derivative absorption values and calculate contents, and accumulative osmolality Q was calculated according to the following formula;
In the above formula, c is concentration of receiving solution sample; v1 is volume of sample as taken at every turn; v2 is volume of diffusion cell; A is diffusion area. Diagrams were plotted by using t as abscissa, Q as ordinate to obtain osmosis curves of bromfenac sodium, bromfenac diethylamine salt and bromfenac trometamol salt; linear regression was performed using accumulative osmolality Q against time, the obtained slope K was transdermal osmotic rate; the accumulative osmolality of 24 hours was multiplied by the effective osmotic area (1.23 cm^2) to obtain total osmolality of 24 hours; and the total osmolality of 24 hours was divided by the mass of the added product in the supplying chamber to obtain osmotic percentage.

[4] = 0.5 hours after injection of egg white
[5] = 0.5 hours after injection of egg white, lavage 50 mL/Kg twice per day for 7 days
[6] = 1.0 hours after injection of egg white
[7] = 2.0 hours after injection of egg white
[8] = 4.0 hours after injection of egg white
[9] = 6.0 hours after injection of egg white
[10] = Normal rats (before egg white), lavage 50 mL/Kg twice per day for 7 days

Row | SMILES | content (HPLC), aqueous state ([1]; 25° C., dark, 2 weeks) [%] | content (HPLC), aqueous state ([1]; 25° C., dark, 3 weeks) [%] | degradation products and content changes in aqueous solution [1] | voix pedis swelling rate [2, 4] | voix pedis volume [2, 5] [mL] | voix pedis swelling rate [2, 6] | voix pedis volume [2, 6] [mL] | voix pedis swelling rate [2, 7] | voix pedis volume [2, 7] [mL] | voix pedis swelling rate [2, 8] | voix pedis volume [2, 8] [mL] | voix pedis swelling rate [2, 9] | voix pedis volume [2, 9] [mL] | voix pedis swelling rate ([2]; Normal rats) | voix pedis volume [2, 10] [mL] | effect on voix pedis swelling caused by egg white in rats [2] | Accumulative osmolality ([3]; 2 hours) [μg/cm^2] | Accumulative osmolality ([3]; 4 hours) [μg/cm^2] | Accumulative osmolality ([3]; 6 hours) [μg/cm^2] | Accumulative osmolality ([3]; 8 hours) [μg/cm^2] | further results
1 | Nc1c(CC(=O)O)cccc1C(=O)c1ccc(Br)cc1 [Bromfenac diethylamine salt, bromfenac diethylamine salt] | 99.4 | 99.2 | not observed | (0.65 ± 0.08) | 1.61 ± 0.08 | (0.58 ± 0.08) | 1.55 ± 0.09 | (0.41 ± 0.08) | 1.38 ± 0.06 | (0.23 ± 0.05) | 1.21 ± 0.06 | (0.08 ± 0.06) | 1.06 ± 0.08 | (0.65 ± 0.08) | 1.61 ± 0.08 | significantly inhibit | 322.8 | 964.1 | 1898.6 | 2721.8 | content (HPLC), aqueous state ([1]; 25° C., dark, 1 week): 99.5%; content (HPLC), aqueous state ([1]; Initial): 99.5%; Accumulative osmolality ([3]; 10 hours): 3303.0 μg/cm^2; Accumulative osmolality ([3]; 12 hours): 4123.6 μg/cm^2; Total osmolality of 24 h [3]: 10360.0 µg; Accumulative osmolality ([3]; 24 hours): 8426.7 μg/cm^2; transdermal absorption amount relative to bromfenac sodium ([3]; 24 hours): 1.85 times; Osmotic rate [3]: 369.04 μg/cm^2 · h^−1; Osmotic percentage [3]: 51.80%
2 | Nc1c(CC(=O)[O-])cccc1C(=O)c1ccc(Br)cc1.[Na+] [Bromfenac sodium, 2-amino-3-(4-bromobenzoyl)phenylacetic acid sodium salt sesquialter hydrate, reference compound] | 99.4 | 99.1 | not observed | (0.58 ± 0.06) | 1.56 ± 0.11 | (0.53 ± 0.07) | 1.51 ± 0.10 | (0.40 ± 0.09) | 1.39 ± 0.11 | (0.22 ± 0.08) | 1.20 ± 0.10 | (0.06 ± 0.05) | 1.04 ± 0.06 | (0.58 ± 0.06) | 1.51 ± 0.11 | significantly inhibit | 45.5 | 118.5 | 340.8 | 708.6 | content (HPLC), aqueous state ([1]; 25° C., dark, 1 week): 99.5%; content (HPLC), aqueous state ([1]; Initial): 99.6%; Accumulative osmolality ([3]; 10 hours): 1231.3 μg/cm^2; Accumulative osmolality ([3]; 12 hours): 2214.5 μg/cm^2; Total osmolality of 24 h [3]: 5600.0 µg; Accumulative osmolality ([3]; 24 hours): 4554.1 μg/cm^2; Osmotic rate [3]: 219.05 μg/cm^2 · h^−1; Osmotic percentage [3]: 28.0%
3 | Nc1c(CC(=O)O)cccc1C(=O)c1ccc(Br)cc1 [Bromfenac trometamol salt, bromfenac trometamol salt] | 99.3 | 99.1 | not observed | (0.63 ± 0.09) | 1.59 ± 0.09 | (0.57 ± 0.10) | 1.54 ± 0.11 | (0.44 ± 0.13) | 1.41 ± 0.13 | (0.20 ± 0.10) | 1.24 ± 0.10 | (0.10 ± 0.07) | 1.08 ± 0.08 | (0.63 ± 0.09) | 1.59 ± 0.09 | significantly inhibit | 277.2 | 632.5 | 1268.3 | 2089.6 | Accumulative osmolality ([3]; 10 hours): 2736.1 μg/cm^2; Accumulative osmolality ([3]; 12 hours): 3085.7 μg/cm^2; Total osmolality of 24 h [3]: 9010.0 µg; Accumulative osmolality ([3]; 24 hours): 7326.9 μg/cm^2; transdermal absorption amount relative to bromfenac sodium ([3]; 24 hours): 1.61 times; Osmotic rate [3]: 320.61 μg/cm^2 · h^−1; Osmotic percentage [3]: 45.05%
